Laboratory results published in patent publication US12673946B2, “Pyrimidin-4(3H)-one derivatives as TRPV4 antagonists” (RaQualia Pharma Inc., priority 2020, dated 2026).

Target: T1, human TRPV4 (Homo sapiens, UniProt Q9HBA0)
T1 construct: host or cells: tetracycline-inducible Flp-In T-REx 293 cells
Experiment: Hypotonicity-induced Ca2+ influx (Fluo-4, FDSS)
Type: cell-based
Summary of the method: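 Flp-In T-REx 293 cells with tetracycline-induced human TRPV4, loaded with Fluo-4 for 60 min at 25 °C. Compound added 5 min before hypotonic mannitol/CaCl2 solution. Ca2+ signal recorded for 4.5 min on FDSS.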

[1] = Flp-In T-REx 293 cells expressing human TRPV4, examples listed under heading 'Human IC50<50 nM'
[2] = Flp-In T-REx 293 cells stably expressing human TRPV4, compounds listed by potency bin (<10 nM Tables 96-1/96-2, <3 nM Table 97)

T1 sequence (Q9HBA0 whole entry): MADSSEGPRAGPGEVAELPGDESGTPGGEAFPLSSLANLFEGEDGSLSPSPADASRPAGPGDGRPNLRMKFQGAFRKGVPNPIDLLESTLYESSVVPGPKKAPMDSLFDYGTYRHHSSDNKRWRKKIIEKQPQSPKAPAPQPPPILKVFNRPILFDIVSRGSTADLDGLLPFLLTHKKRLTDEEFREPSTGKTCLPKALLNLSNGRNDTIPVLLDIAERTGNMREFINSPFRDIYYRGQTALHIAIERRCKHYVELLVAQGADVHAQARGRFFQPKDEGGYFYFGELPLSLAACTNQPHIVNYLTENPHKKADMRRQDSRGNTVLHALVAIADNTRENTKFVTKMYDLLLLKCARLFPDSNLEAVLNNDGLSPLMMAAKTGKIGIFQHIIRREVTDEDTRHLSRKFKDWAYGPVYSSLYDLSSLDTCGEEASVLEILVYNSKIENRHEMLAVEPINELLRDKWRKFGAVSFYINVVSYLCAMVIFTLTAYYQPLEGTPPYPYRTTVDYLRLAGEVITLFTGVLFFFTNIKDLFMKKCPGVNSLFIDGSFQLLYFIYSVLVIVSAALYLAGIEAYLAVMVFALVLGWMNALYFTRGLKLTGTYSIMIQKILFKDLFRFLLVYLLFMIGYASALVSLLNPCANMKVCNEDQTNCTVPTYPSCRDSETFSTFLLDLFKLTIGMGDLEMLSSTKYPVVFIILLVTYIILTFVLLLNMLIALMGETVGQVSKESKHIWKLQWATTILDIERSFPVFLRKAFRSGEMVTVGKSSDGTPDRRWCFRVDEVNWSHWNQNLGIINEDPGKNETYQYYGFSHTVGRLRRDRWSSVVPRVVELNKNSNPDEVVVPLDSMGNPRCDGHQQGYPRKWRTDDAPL

| Compound | IC50 [1] [µM] | IC50 [2] [µM] |
| --- | --- | --- |
| COc1ccc(-c2cccc(C3(c4nc5c(c(=O)[nH]4)CN(C(=O)[C@H](O)c4cccc(C(F)(F)F)c4)CCC5)CC3)c2)cn1 [42-7] | < 0.05 | < 0.003 |
| O=C([C@H](O)c1cccc(-c2cc(C(F)(F)F)ccc2Cl)c1)N1CCCc2nc(C3(c4ccccc4)CC3)[nH]c(=O)c2C1 [49-52] | < 0.05 | < 0.003 |
| O=C(Cc1cccc(-c2cccc(C(F)(F)F)c2)c1)N1CCc2nc(C3(c4cccc(Cl)c4)CC3)[nH]c(=O)c2C1 [14-122] | < 0.05 | < 0.01 |
| O=C([C@H](O)c1cccc(Cl)c1)N1CCCc2nc(C3(c4cccc(-c5coc6ccccc56)c4)CC3)[nH]c(=O)c2C1 [40-19] | < 0.05 | < 0.003 |
| O=C([C@H](O)c1cccc(Cl)c1)N1CCCc2nc(C3(c4cccc(OCc5ccccc5)c4)CC3)[nH]c(=O)c2C1 [17-91] | < 0.05 | < 0.003 |
| N#Cc1cccc(-c2cccc([C@@H](O)C(=O)N3CCCc4nc(C5(c6cccc(Cl)c6)CC5)[nH]c(=O)c4C3)c2)c1 [50-25] | < 0.05 | < 0.003 |
| CC(C)c1cccc(-c2cccc([C@@H](O)C(=O)N3CCCc4nc(C5(c6cccs6)CC5)[nH]c(=O)c4C3)c2)c1 [53-3] | < 0.05 | < 0.01 |
| CC(C)c1cccc(C2(c3nc4c(c(=O)[nH]3)CN(C(=O)[C@H](O)c3cccc(-c5cccc(C(C)(C)C)c5)c3)CCC4)CC2)c1 [51-5] | < 0.05 | < 0.01 |
| CC(C)c1cccc(C(O)C(=O)N2CCc3nc(C4(c5cccc(Cl)c5)CC4)[nH]c(=O)c3C2)c1 (stereo not drawn) [14-16] | < 0.05 |  |
| O=C(C(O)c1cccc(Cl)c1F)N1CCCc2nc(C3(c4cccc(Cl)c4)CC3)[nH]c(=O)c2C1 (stereo not drawn) [17-7] | < 0.05 | < 0.003 |
| O=C(C(O)c1cccc(C(F)(F)F)c1F)N1CCc2nc(C3(c4cncc(-c5ccccc5)c4)CC3)[nH]c(=O)c2C1 (stereo not drawn) [16-2] | < 0.05 | < 0.01 |
| O=C(N1CCCc2nc(C3(c4cncc(-c5ccccc5)c4)CC3)[nH]c(=O)c2C1)C(F)(F)c1cccc(Cl)c1F [22-7] | < 0.05 | < 0.003 |
| CC(C)c1cccc(C(O)C(=O)N2CCCc3nc(C4(c5ccccc5)CC4)[nH]c(=O)c3C2)c1 (stereo not drawn) [17-59] | < 0.05 |  |
| O=C(Cc1cccc(-c2cccc(Cl)c2)c1)N1CCc2nc(C3(c4cccc(C5CCCCC5)c4)CC3)[nH]c(=O)c2C1 [27-7] | < 0.05 | < 0.01 |
| CC(C)c1cccc(C2(c3nc4c(c(=O)[nH]3)CN(C(=O)C(O)c3cccc(Cl)c3F)CC4)CC2)c1 (stereo not drawn) [14-110] | < 0.05 | < 0.01 |
| CC(C)c1csc(C2(c3nc4c(c(=O)[nH]3)CN(C(=O)C(O)c3cccc(C(F)(F)F)c3F)CCC4)CC2)c1 (stereo not drawn) [18-16] | < 0.05 | < 0.01 |
| CC(C)c1csc(C2(c3nc4c(c(=O)[nH]3)CN(C(=O)C(O)c3cccc(C(C)(C)C)c3)CC4)CC2)c1 (stereo not drawn) [15-24] | < 0.05 | < 0.01 |
| CC(C)c1cccc(-c2cccc([C@@H](O)C(=O)N3CCc4nc(C5(c6ccccc6)CC5)[nH]c(=O)c4C3)c2)c1 [44-115] | < 0.05 | < 0.01 |
| Cc1ccc(-c2cccc([C@@H](O)C(=O)N3CCCc4nc(C5(c6ccccc6)CC5)[nH]c(=O)c4C3)c2)cc1Cl [49-31] | < 0.05 | < 0.003 |
| O=C([C@H](O)c1cccc(Cl)c1)N1CCCc2nc(C3(c4cccs4)CC3)[nH]c(=O)c2C1 [18-12] | < 0.05 |  |
| O=C(Cc1cccc(-c2cc(F)cc(Cl)c2)c1)N1CCCc2nc(C3(c4cccc(Cl)c4)CC3)[nH]c(=O)c2C1 [57-9] | < 0.05 | < 0.01 |
| O=C([C@H](O)c1cccc(C(F)(F)F)c1)N1CCCc2nc(C3(c4cc(C5CCC(F)(F)CC5)cs4)CC3)[nH]c(=O)c2C1 [30-3] | < 0.05 | < 0.003 |
| O=C(C(O)c1cccc(-c2ccc(Cl)cc2)c1)N1CCCc2nc(C3(c4cccc(Cl)c4)CC3)[nH]c(=O)c2C1 (stereo not drawn) [17-17] | < 0.05 | < 0.01 |
| O=C(C(O)c1cccc(-c2cccc(C(F)(F)F)c2)c1)N1CCCc2nc(C3(c4cncc(-c5ccccc5)c4)CC3)[nH]c(=O)c2C1 (stereo not drawn) [56-2] | < 0.05 | < 0.003 |
| O=C(C(O)c1cccc(-c2cccc(C3CC3)c2)c1)N1CCc2nc(C3(c4ccccc4)CC3)[nH]c(=O)c2C1 (stereo not drawn) [44-20] | < 0.05 |  |
| O=C(C(O)c1cccc(OCc2ccccc2)c1)N1CCCc2nc(C3(c4ccccc4)CC3)[nH]c(=O)c2C1 (stereo not drawn) [17-76] | < 0.05 | < 0.01 |
| O=C([C@H](O)c1cccc(-c2cc(Cl)cc(OC(F)(F)F)c2)c1)N1CCCc2nc(C3(c4ccccc4)CC3)[nH]c(=O)c2C1 [49-34] | < 0.05 | < 0.01 |
| O=C([C@H](O)c1cccc(Cl)c1)N1CCc2nc(C3(c4cccs4)CC3)[nH]c(=O)c2C1 [6-7] | < 0.05 |  |

| Compound | IC50 [1] [µM] | IC50 [2] [µM] |
| --- | --- | --- |
| O=C(C(O)c1cccc(-c2ccccc2C(F)(F)F)c1)N1CCc2nc(C3(c4ccccc4)CC3)[nH]c(=O)c2C1 (stereo not drawn) [44-54] | < 0.05 |  |
| O=C([C@H](O)c1cccc(Cl)c1)N1CCc2nc(C3(c4ccccc4)CC3)[nH]c(=O)c2C1 [2-33, (R)-6-(2-(3-chlorophenyl)-2-hydroxyacetyl)-2-(1-phenylcyclopropyl)-5,6,7,8-tetrahydropyrido[4,3-d]pyrimidin-4(3H)-one] | < 0.05 |  |
| O=C(N1CCCc2nc(C3(c4ccccc4)CC3)[nH]c(=O)c2C1)C(F)(F)c1cccc(-c2cccc(C3CC3)c2)c1 [58-4] | < 0.05 | < 0.01 |
| O=C([C@H](O)c1cccc(-c2cc(Cl)cc(C(F)(F)F)c2)c1)N1CCc2nc(C3(c4ccccc4)CC3)[nH]c(=O)c2C1 [44-99] | < 0.05 | < 0.01 |
| CC(C)c1cccc(C2(c3nc4c(c(=O)[nH]3)CN(C(=O)C(O)c3cccc(SC(F)(F)F)c3)CCC4)CC2)c1 (stereo not drawn) [17-44] | < 0.05 |  |
| O=C([C@H](O)c1cccc(C(F)(F)F)c1)N1CCCc2nc(C3(c4cccc(-c5ccc6ncsc6c5)c4)CC3)[nH]c(=O)c2C1 [17-94] | < 0.05 | < 0.01 |
| CC(C)c1csc(C2(c3nc4c(c(=O)[nH]3)CN(C(=O)C(F)(F)c3cccc(Cl)c3)CCC4)CC2)c1 [21-3] | < 0.05 | < 0.003 |
| CC(C)c1csc(C2(c3nc4c(c(=O)[nH]3)CN(C(=O)C(O)c3cccc(-c5cccc(OC(F)(F)F)c5)c3)CCC4)CC2)c1 (stereo not drawn) [18-20] | < 0.05 | < 0.01 |
| O=C([C@H](O)c1cccc(Cl)c1)N1CCCc2nc(C3(c4cccc(Br)c4)CC3)[nH]c(=O)c2C1 [17-87] | < 0.05 | < 0.01 |
| O=C([C@H](O)c1cccc(-c2cc(Cl)cc(C(F)(F)F)c2)c1)N1CCc2nc(C3(c4cccc(Cl)c4)CC3)[nH]c(=O)c2C1 [45-10] | < 0.05 | < 0.01 |
| O=C([C@H](O)c1cccc(-c2cccc(Cl)c2)c1)N1CCc2nc(C3(c4cccc(Cl)c4)CC3)[nH]c(=O)c2C1 [45-8] | < 0.05 | < 0.01 |
| CC(C)(C)c1cccc(-c2cccc(C(F)(F)C(=O)N3CCCc4nc(C5(c6ccccc6)CC5)[nH]c(=O)c4C3)c2)c1 [58-2] | < 0.05 | < 0.01 |
| O=C([C@H](O)c1cccc(C(F)(F)F)c1)N1CCCc2nc(C3(c4cccc(C5=CCN(S(=O)(=O)c6ccc(F)cc6)CC5)c4)CC3)[nH]c(=O)c2C1 [42-75] | < 0.05 | < 0.01 |
| O=C(Cc1cccc(-c2cccc(C(F)(F)F)c2)c1)N1CCCc2nc(C3(c4cccc(Cl)c4)CC3)[nH]c(=O)c2C1 [17-99] | < 0.05 | < 0.01 |
| O=C(C(O)c1cccc(Oc2ccccc2)c1)N1CCCc2nc(C3(c4cccc(F)c4)CC3)[nH]c(=O)c2C1 (stereo not drawn) [17-52] | < 0.05 |  |
| CC(C)(C)c1cccc(C(O)C(=O)N2CCCc3nc(C4(c5cccc(Cl)c5)CC4)[nH]c(=O)c3C2)c1 (stereo not drawn) [17-18] | < 0.05 | < 0.01 |
| O=C(C(O)c1cccc(-c2ccc(Cl)s2)c1)N1CCc2nc(C3(c4ccccc4)CC3)[nH]c(=O)c2C1 (stereo not drawn) [44-30] | < 0.05 |  |
| CC(C)c1cncc(C2(c3nc4c(c(=O)[nH]3)CN(C(=O)C(O)c3cccc(Cl)c3F)CCC4)CC2)c1 (stereo not drawn) [19-12] | < 0.05 | < 0.01 |
| CC(C)(C)c1cccc(-c2cccc(C(O)C(=O)N3CCc4nc(C5(c6ccccc6)CC5)[nH]c(=O)c4C3)c2)c1 (stereo not drawn) [44-7] | < 0.05 | < 0.01 |
| CCc1csc(C2(c3nc4c(c(=O)[nH]3)CN(C(=O)[C@H](O)c3cccc(C(F)(F)F)c3)CCC4)CC2)c1 [30-2] | < 0.05 | < 0.003 |
| Cc1ccc(-c2cccc([C@@H](O)C(=O)N3CCCc4nc(C5(c6ccccc6)CC5)[nH]c(=O)c4C3)c2)cc1C [49-48] | < 0.05 | < 0.01 |
| O=C(C(O)c1cncc(-c2cccc(C(F)(F)F)c2)c1)N1CCc2nc(C3(c4ccccc4)CC3)[nH]c(=O)c2C1 (stereo not drawn) [48-4] | < 0.05 | < 0.01 |
| O=C(C(O)c1cccc(C(F)(F)F)c1)N1CCc2nc(C3(c4ccc(F)cc4)CC3)[nH]c(=O)c2C1 (stereo not drawn) [3-67] | < 0.05 |  |
| CC(C)c1cccc(-c2cccc([C@@H](O)C(=O)N3CCCc4nc(C5(c6cccc(-c7csc8ccccc78)c6)CC5)[nH]c(=O)c4C3)c2)c1 [52-13] | < 0.05 | < 0.01 |
| CC(C)c1csc(C2(c3nc4c(c(=O)[nH]3)CN(C(=O)[C@H](O)c3cccc(-c5cccc(F)c5)c3)CCC4)CC2)c1 [54-5] | < 0.05 | < 0.003 |
| O=C([C@H](O)c1cccc(C(F)(F)F)c1)N1CCc2nc(C3(c4cccc(-c5ccccc5)c4)CC3)[nH]c(=O)c2C1 [37-1] | < 0.05 | < 0.003 |
| O=C([C@H](O)c1cccc(Cl)c1)N1CCCc2nc(C3(c4cccc(C5CCCCC5)c4)CC3)[nH]c(=O)c2C1 [29-2, (R)-6-(2-(3-chlorophenyl)-2-hydroxyacetyl)-2-(1-(3-cyclohexylphenyl)cyclopropyl)-3,5,6,7,8,9-hexahydro-4H-pyrimido[5,4-c]azepin-4-one] | < 0.05 | < 0.003 |
